These results are taken from patent US20050288265A1, “Novel combination of glucocorticoids and pde-4 inhibitors for treating respiratory diseases, allegic diseases, asthma and copd” (priority 2002, published 2005).

Read-outs that look alike come from different tables or passages of the source.

As a reminder, the IC50 is the midpoint of a concentration-inhibition curve.

For experiment [1], the system named is GM-CSF release from LPS-stimulated monocytes. The experiment can be described thus: Inhibition of GM-CSF release from LPS-stimulated monocytes. The conditions noted are these: for IC50: Homo sapiens, Monocyte. Type of experiment: cell-based, human. The procedure:
Inhibition of GM-CSF Release from LPS-Stimulated Monocytes EDTAized human whole blood was mixed with Hanks' buffer in the ratio 1:1. Histopaque 1077 solution (15 ml) was cautiously overlaid with max. 40 ml of the blood: Hanks' mixture and centrifuged (2000 rpm) at room temperature for 30 min. The band enriched with leukocytes was aspirated off, washed twice with Hanks' buffer and transferred into RPMI 1640 medium with Glutamax I (Gibco BRL, Eggenstein). The monocytes were removed through their adherence to the cell culture bottle over a period of two hours. The cells were then thoroughly washed with medium in order to remove non-adherent cells. […] The cells were preincubated with the stated test substances for 30 minutes. LPS was then added, and incubation was continued for a period of 24 h. The supernatants were aspirated off and investigated by ELISA. The amount of secreted human GM-CSF in the cell culture supernatants was determined by using an OptEIA™ human GM-CSF ELISA test (Pharmingen, San Diego). It was carried out in microtiter plates. Anti-human monoclonal antibodies were coupled as antibodies to the plate at 4° C. overnight. This coating and three washes were followed by saturation of nonspecific bindings by means of assay diluent solution™ (PBS with 10% FCS, pH 7.0) (Pharmingen, San Diego) at RT for 1 h. This was followed by incubation with the samples and the standard (recombinant human GM-CSF) at 4° C. overnight. […] All the steps were followed by washing 5 or 7 times with PBS/0.05% Tween 20. The enzyme activity was determined using substrate solution™ (tetramethylbenzidine (TMB) and hydrogen peroxide, Pharmingen, San Diego) as substrate at RT for 30 min. The enzyme-substrate reaction was stopped with 1M phosphoric acid, and the extinction at 450 nm was measured.

In experiment [2] the test system is TNF release from LPS-stimulated monocytes. The experiment can be described thus: Inhibition of TNF release from LPS-stimulated monocytes. Type of experiment: cell-based, human. The conditions noted are these: for IC50: Homo sapiens, Monocyte, substance alone, LPS-stimulated monocytes. As to the method:
EDTAized human whole blood was mixed with Hanks' buffer in the ratio 1:1. Histopaque 1077 solution (15 ml) was cautiously overlaid with max. 40 ml of the blood: Hanks' mixture and centrifuged (2000 rpm) at room temperature for 30 min. The band enriched with leukocytes was aspirated off, washed twice with Hanks' buffer and transferred into RPMI 1640 medium with Glutamax I (Gibco BRL, Eggenstein). The monocytes were removed through their adherence to the cell culture bottle over a period of two hours. The cells were then thoroughly washed with medium in order to remove non-adherent cells. The resulting monocytes were cultured in RPMI 1640 medium with 10% heat-inactivated fetal calf's serum (FCS) and 100 U/ml penicillin and 100 μg/ml streptomycin in a CO2 incubator (5% CO2, 96% relative humidity, 37° C.).
Primary monocytes were seeded in 24-well plates at 5×10^5 cells/well. The cells were preincubated with the stated test substances for 30 minutes. LPS was then added, and incubation was continued for a period of 24 h. The supernatants were aspirated off and investigated by ELISA.

The mark [3] stands for this setting: substance alone, LPS-stimulated primary monocytes, 24 h, read-out: IC50 for GM-CSF release from human monocytes.
[4] abbreviates: when 10 nM loteprednol was given simultaneously.

For the compound `O=C(Nc1c(Cl)cncc1Cl)C(=O)c1cn(Cc2ccc(F)cc2)c2ccc(O)cc12` [DFHO, N-(3,5-dichloropyridin-4-yl)-2-[1-(4-fluoro-benzyl)-5-hydroxyindol-3-yl]-2-oxoacetamide], the IC50 is 60 nM in experiment [1] (addition of 10 nM loteprednol, read-out: IC50 for DFHO for GM-CSF release in the presence of loteprednol); 3200 nM in experiment [1] (setting [3]); 5700 nM in experiment [2]. Further, the “reduction in the IC50 for GM-CSF release” value in experiment [1] (setting [4]) stood at 98%. Besides, the “reduction in the IC50 for TNF release” value in experiment [2] (setting [4]) is listed as 99%.

On to `CCOC(=O)O[C@]1(C(=O)OCCl)CC[C@H]2[C@@H]3CCC4=CC(=O)C=C[C@]4(C)[C@H]3[C@@H](O)C[C@@]21C` [loteprednol], for which the concentration for half-maximal inhibition (IC50) in experiment [1] (addition of 5 nM DFHO, read-out: IC50 for loteprednol for GM-CSF release in the presence of DFHO) is 13.4 nM; in experiment [1] (setting [3]), 53.7 nM; in experiment [2], 85.5 nM. The “reduction in the IC50 for GM-CSF release” value in experiment [1] (when 5 nM DFHO was given) was 75%. In experiment [2] (when 5 nM DFHO was given), the “reduction in the IC50 for TNF release” value was 65%.
